# Assays:
# [1] = Chemoprevention index, ratio of IC50 for mouse Hepa-1c1c7 cells to drug level required to double specific NADPH:quinone reductase activity in mouse Hepa-1c1c7 cells; assay type: functional
# [2] = Cytotoxicity against mouse Hepa-1c1c7 cells after 48 hrs by crystal violet staining; assay type: cell-based; conditions: Hepa-1c1c7, 48 h
structure (smiles),measurement,setting,value
COc1c(O)cc2c(c1O)C(=O)c1ccc(O)cc1C2=O,Ratio,[1],>7770
same,IC50,[2],> 69.9 µM
C[S@+]([O-])CCCCN=C=S [L-SULFORAPHANE],Ratio,[1],28.7
same,IC50,[2],9.77 µM
COc1ccc(O)c2c1C(=O)c1ccc(CO)c(O)c1C2=O,Ratio,[1],>39.9
same,IC50,[2],> 66.6 µM

# Source: ChEMBL document CHEMBL1151275, “An anthraquinone with potent quinone reductase-inducing activity and other constituents of the fruits of Morinda citrifolia (noni)” (J Nat Prod, 2005)
